In brackets after ≈: the same amount, converted by molar mass. Read-outs that look alike come from different tables or passages of the source.
Legend:
[1] = system: human cervical carcinoma cell line KB/HeLa; assay: XTT proliferation assay, KB/HeLa; type: cell-based; settings: KB/HeLa cells, 45 h incubation
Source text: (§1) The substances according to the invention were investigated for their antiproliferative activity in a proliferation test on established tumor cell lines. The test used determines the cellular dehydrogenase activity and makes possible a determination of the cell vitality and indirectly the cell count. The cell lines used are the human cervical carcinoma cell line KB/HeLa, (ATCC CCL17), the ovarian adenocarcinoma cell line SKOV-3 (ATCC HTB77), the human glioblastoma cell line SF-268 (NCI 503138) and the lung carcinoma cell line NCI-H460 (NCI 503473). In addition, for the investigation of the cell cycle-specific action of the substance, an RKOp27 cell system was used (M. Schmidt et al. Oncogene 19(20):2423-9, 2000). RKO is a human colon carcinoma cell line, in which the cell cycle inhibitor p27^kip1 induced by means of the ecdysone expression system is expressed and can be led to a cell cycle arrest specifically in […]. A nonspecifically acting substance inhibits the proliferation independently of weather the RKO cell is or is not arrested in G1 or G2. Cell cycle-specific substances such as, for example, tubulin inhibitors are, however, only cytotoxic if cells are not arrested and the cell cycle is passed through. In table 1, the cytotoxic and/or growth-inhibiting activities of the compound described with/without expression of p27^kip1 are shown.
(§2) The adherently growing tumor cell lines KB/HeLa, SKOV-3, SF-268 and NCI-H460 were cultured under standard conditions in a fumigation incubator at 37° C., 5% CO2 and 95% atmospheric humidity. On experimental day 1, the cells are detached using trypsin/EDTA and pelleted by centrifugation. Subsequently, the cell pellet is resuspended in the respective culture medium at the corresponding cell count and reacted in a 96-well microtiter plate. The plates are then cultured overnight in the fumigation incubator. The test substances are prepared as 1 mg/ml stock solutions in DMSO and diluted to the appropriate concentrations on experimental day 2 using culture medium. The substances in culture medium are then added to the cells and incubated in the fumigation incubator for 45h. As a control, cells which are not treated with test substance are used. For the XTT assay, 1 mg/ml of XTT (sodium 3′-[1-(phenylaminocarbonyl)-3,4-tetrazolium]-bis(4-methoxy-6-nitro)benzenesulfonic acid) is dissolved in RPMI-1640 medium without Phenol Red. Additionally, a 0.383 mg/ml PMS (N-methyldibenzopyrazine methylsulfate) solution in phosphate-buffered saline solution (PBS) is prepared. On experimental day 4, 75 μl/well of XTT-PMS mixture is pipetted onto the cell plates which in the meantime have been incubated with the test substances for 45 h. For this, shortly before use, the XTT solution is mixed with the PMS solution in the ratio 50:1 (vol:vol). The cell plates are then incubated in the fumigation incubator for a further 3h and the optical density (OD490nm) is determined in a photometer. By means of the OD490nm determined, the percentage inhibition is calculated relative to the control and plotted semilogarithmically in the form of a concentration-action curve. The EC50 is calculated by means of a regression analysis from the concentration-action curve using the program Graphpad Prism.

[2] = system: ovarian adenocarcinoma cell line SKOV-3; assay: XTT proliferation assay, SKOV-3; type: cell-based; settings: Homo sapiens, SK-OV-3; SKOV-3 cells, 45 h incubation; read-out: XTT proliferation assay, EC50, SKOV3
Source text: as §1, §2

[3] = system: human glioblastoma cell line SF-268; assay: XTT proliferation assay, SF-268; type: cell-based; settings: SF-268 cells, 45 h incubation
Source text: as §1, §2

[4] = system: lung carcinoma cell line NCI-H460; assay: XTT proliferation assay, NCI-H460; type: cell-based; settings: Homo sapiens; NCI-H460 cells, 45 h incubation
Source text: as §1, §2

[5] = system: RKOp27 human colon carcinoma cell line; assay: Cell cycle analysis by means of the RKOp27 model (XTT); type: cell-based; settings: RKOp27, 45 h, RKOp27 cells, read-out: XTT proliferation assay, EC50, RKOP27
Source text: as §1, §2
The assay is carried out in 96-well plates. […] By comparison of the activity on induced and noninduced cells, conclusions on the mechanism of action (cell cycle specificity) of the therapeutics can be drawn. […] are inoculated in approximately three-fold higher cell count, since division no longer takes place during the assay in comparison with uninduced cells (20000 cells/well induced, 6250 cells/well not induced). The controls are untreated cells (+/−induction). The induction is carried out with 3 μM muristerone A On the 1st day, the cells are exposed (+/− muristerone A) and incubated at 37° C. for 24h. […]

[6] = system: bovine tubulin; assay: Tubulin polymerization assay; type: biochemical; settings: average of two independent experiments; for Inhibition of tubulin polymerization, EC50, without MAPs: MAP-free bovine tubulin; for Inhibition of tubulin polymerization, EC50, with 30% MAPs: bovine tubulin with 30% MAPs
Experimental: Selected substances were tested for inhibition of the polymerization of bovine tubulin in an in-vitro test. In this test, tubulin purified by cycles of polymerization and depolymerization is employed, which is polymerized by addition of GTP and warming. In Table 2, the EC50 values of the inhibition of polymerization of tubulin with 30% associated proteins (MAPs) and of MAP-free tubulin are indicated.
The assay is carried out based on the method of Bollag et. al. Lyophilized bovine tubulin (cytoskeleton, ML113 tubulin 30% MAPs, TL238 tubulin MAP free) is dissolved in a concentration of 2 mg/ml (ML113 in 80 mM PIPES, 0.5 mM EGTA, 2 mM MgCl2, pH6.9, 1 mM GTP) or 5 mg/ml (TL238 in 80 mM PIPES, 1 mM EGTA, 0.5 mM MgCl2, 20% (v:v) glycerol pH 6.9, 1 mM GTP). The test substances are diluted in 10% DMSO (v:v) and 5 μl of the dilutions are transferred to a 96-well microtiter plate (Nunc, half area plate). After addition of 45 μl of the tubulin solution, the polymerization is determined at 340 nm in a Spectramax 190 microtiter plate reader (Molecular devices) by means of a kinetics program at 30 sec intervals over a period of 20 min. The resulting area under curve values are used for the calculation of the inhibition with respect to the untreated control and plotted semilogarithmically in the form of a concentration-action curve. The EC50 is calculated by means of a regression analysis from the concentration-action curve using the program Graphpad Prism.

[7] = p27kip1 induced with 3 μM muristerone A (arrested)
[8] = without expression of p27kip1 (not induced)

| Structure (SMILES) | EC50 [1] [µg/mL] | EC50 [2] [µg/mL] | EC50 [3] [µg/mL] | EC50 [4] [µg/mL] | EC50 [5, 7] [µg/mL] | EC50 [5, 8] [µg/mL] | Inhibition of tubulin polymerization, EC50, without MAPs [6] [µg/mL] | Inhibition of tubulin polymerization, EC50, with 30% MAPs [6] [µg/mL] | melting point [°C] |
| --- | --- | --- | --- | --- | --- | --- | --- | --- | --- |
| COc1cc(OC)cc(N2CCN(C(=O)c3cccc4c3-c3ccccc3C4=O)CC2)c1 [Compound 1, 4-[4-(3,5-Dimethoxyphenyl)piperazine-1-carbonyl]fluoren-9-one] | 0.555 (≈ 1.3 µM) | 0.4 (≈ 0.934 µM) | 0.309 (≈ 0.721 µM) | 0.312 (≈ 0.728 µM) | > 3.16 | 0.208 (≈ 0.485 µM) | 1.36 | 0.86 | – |
| Cc1cccc(N2CCN(C(=O)c3cccc4c3-c3ccccc3C4=O)CC2)n1 [Compound 2, 4-[4-(6-Methylpyridin-2-yl)piperazine-1-carbonyl]fluoren-9-one] | 2.59 (≈ 6.76 µM) | 0.585 (≈ 1.53 µM) | 0.939 (≈ 2.45 µM) | 0.886 (≈ 2.31 µM) | > 3.16 | 0.326 (≈ 0.85 µM) | – | – | – |
| O=C1c2ccccc2-c2c1cccc2C(=O)N1CCN(c2cccc(O)c2)CC1 [Compound 3, 4-[4-(3-Hydroxyphenyl)piperazine-1-carbonyl]fluoren-9-one] | 4.32 (≈ 11.2 µM) | 0.397 (≈ 1.03 µM) | 0.478 (≈ 1.24 µM) | 0.853 (≈ 2.22 µM) | > 3.16 | 0.726 (≈ 1.89 µM) | – | 4.77 | – |
| Cc1cc(C)cc(N2CCN(C(=O)c3cnnc4ccccc34)CC2)c1 [Compound 5, Cinnolin-4-yl-[4-(3,5-dimethylphenyl)piperazin-1-yl]methanone] | 1.21 (≈ 3.5 µM) | 0.496 (≈ 1.43 µM) | 0.474 (≈ 1.37 µM) | 0.348 (≈ 1 µM) | > 3.16 | 0.25 (≈ 0.722 µM) | – | – | 114 |
| CSc1nsc(SC)c1C(=O)N1CCN(c2cccc(C)n2)CC1 [Compound 7, (3,5-Bismethylsulfanylisothiazol-4-yl)-[4-(6-methylpyridin-2-yl)piperazin-1-yl]methanone] | 2.71 (≈ 7.12 µM) | 1.01 (≈ 2.65 µM) | – | 1.54 (≈ 4.05 µM) | > 3.16 | 1.2 (≈ 3.15 µM) | – | – | – |
| COc1cc(OC)cc(N2CCN(C(=O)c3nccc4ccccc34)CC2)c1 [Compound 8, [4-(3,5-Dimethoxyphenyl)piperazin-1-yl]isoquinolin-1-ylmethanone] | 0.929 (≈ 2.46 µM) | 0.287 (≈ 0.76 µM) | 0.775 (≈ 2.05 µM) | 0.439 (≈ 1.16 µM) | > 3.16 | 0.291 (≈ 0.771 µM) | – | 5.66 | – |
| COc1cc(OC)cc(N2CCN(C(=O)c3cccc4c3Cc3ccccc3-4)CC2)c1 [Compound 9, [4-(3,5-Dimethoxyphenyl)piperazin-1-yl]-(9H-fluoren-1-yl)methanone] | 0.613 (≈ 1.48 µM) | 0.341 (≈ 0.823 µM) | 0.692 (≈ 1.67 µM) | 0.427 (≈ 1.03 µM) | > 3.16 | 0.217 (≈ 0.524 µM) | – | – | 148 |

The next lines start with the values.

| EC50 [1] [µg/mL] | EC50 [2] [µg/mL] | EC50 [3] [µg/mL] | EC50 [4] [µg/mL] | EC50 [5, 7] [µg/mL] | EC50 [5, 8] [µg/mL] | Inhibition of tubulin polymerization, EC50, without MAPs [6] [µg/mL] | Inhibition of tubulin polymerization, EC50, with 30% MAPs [6] [µg/mL] | melting point [°C] | Structure (SMILES) |
| --- | --- | --- | --- | --- | --- | --- | --- | --- | --- |
| 0.166 (≈ 0.432 µM) | 0.082 (≈ 0.213 µM) | 0.094 (≈ 0.244 µM) | 0.085 (≈ 0.221 µM) | > 3.16 | 0.082 (≈ 0.213 µM) | – | 1.18 | 162 to 163 | COc1cccc(N2CCN(C(=O)C3c4ccccc4-c4ccccc43)CC2)c1 [Compound 10, (9H-Fluoren-9-yl)-[4-(3-methoxyphenyl)piperazin-1-yl]methanone] |
| – | – | – | – | – | – | – | – | 124 | COc1cccc(N2CCN(C(=O)c3cccc4c3Cc3ccccc3-4)CC2)c1 [Compound 11, (9H-Fluoren-1-yl)-[4-(3-methoxyphenyl)piperazin-1-yl]methanone] |
| 0.08 (≈ 0.186 µM) | 0.029 (≈ 0.0674 µM) | 0.075 (≈ 0.174 µM) | 0.064 (≈ 0.149 µM) | > 3.16 | 0.058 (≈ 0.135 µM) | 1.71 | 1.16 | – | COc1cc(OC)cc(N2CCN(C(=O)C3c4ccccc4Oc4ccccc43)CC2)c1 [Compound 12, [4-(3,5-Dimethoxyphenyl)piperazin-1-yl]-(9H-xanthen-9-yl)methanone] |
| 0.628 (≈ 1.57 µM) | 0.293 (≈ 0.732 µM) | 0.408 (≈ 1.02 µM) | 0.29 (≈ 0.724 µM) | > 3.16 | 0.193 (≈ 0.482 µM) | – | 0.73 | 110 | COc1cccc(N2CCN(C(=O)C3c4ccccc4Oc4ccccc43)CC2)c1 [Compound 13, [4-(3-Methoxyphenyl)piperazin-1-yl]-(9H-xanthen-9-yl)methanone] |
| 0.012 (≈ 0.0331 µM) | 0.008 (≈ 0.0221 µM) | 0.009 (≈ 0.0248 µM) | 0.005 (≈ 0.0138 µM) | > 3.16 | 0.006 (≈ 0.0166 µM) | – | 0.46 | – | COc1cccc(N2CCN(C(=O)c3ccnn3-c3ccccc3)CC2)c1 [Compound 14, [4-(3-Methoxyphenyl)piperazin-1-yl]-(2-phenyl-2H-pyrazol-3-yl)methanone] |
| 0.04 (≈ 0.115 µM) | 0.018 (≈ 0.0518 µM) | 0.036 (≈ 0.104 µM) | 0.024 (≈ 0.0691 µM) | > 3.16 | 0.022 (≈ 0.0633 µM) | – | 0.88 | – | Cc1cccc(N2CCN(C(=O)c3ccnn3-c3ccccc3)CC2)n1 [Compound 15, [4-(6-Methylpyridin-2-yl)piperazin-1-yl]-(2-phenyl-2H-pyrazol-3-yl)methanone] |
| 0.147 (≈ 0.422 µM) | 0.082 (≈ 0.235 µM) | 0.1 (≈ 0.287 µM) | 0.087 (≈ 0.25 µM) | > 3.16 | 0.064 (≈ 0.184 µM) | – | 4.20 | – | O=C(c1ccnn1-c1ccccc1)N1CCN(c2cccc(O)c2)CC1 [Compound 16, [4-(3-Hydroxyphenyl)piperazin-1-yl]-(2-phenyl-2H-pyrazol-3-yl)methanone] |

— patent publication US20040097734A1, “Aryl- and heteroarylcarbonylpiperazines and their use for the treatment of benign and malignant oncoses” (priority 2002, published 2004)
